From ChEMBL document CHEMBL1782027, “Synthesis and evaluation of heterobivalent tacrine derivatives as potential multi-functional anti-Alzheimer agents” (Eur J Med Chem, 2011)
Activity calls are given as the source filed them. No cut-off for these calls is given here.

Tests used:
Acetylcholinesterase = Acetylcholinesterase (Electrophorus electricus, UniProt O42275)
Description: Inhibition of electric eel AChE assessed as inhibition of acetylthiocholine chloride substrate hydrolysis incubated for 15 mins before substrate addition measured by spectrophotometry

Cholinesterase = Cholinesterase (Equus caballus, UniProt P81908)
Description: Inhibition of equine serum BuChE assessed as inhibition of butyrylthiocholine chloride substrate hydrolysis incubated for 15 mins before substrate addition measured by spectrophotometry

[1] = molecular target: Acetylcholinesterase (Electrophorus electricus) (UniProt O42275); assay: Binding affinity at electric eel AChE peripheral anionic site assessed as inhibition of acetylthiocholine chloride substrate hydrolysis incubated for 15 mins before substrate addition measured by spectrophotometry based Lineweaver-Burk plot analysis
[2] = Inhibition of amyloid beta (1 to 42) self-aggregation at 20 uM after 48 hrs by thioflavin T fluorescent dye assay
[3] = molecular target: Acetylcholinesterase (Electrophorus electricus) (UniProt O42275); assay: Binding affinity at electric eel AChE catalytic active site assessed as inhibition of acetylthiocholine chloride substrate hydrolysis incubated for 15 mins before substrate addition measured by spectrophotometry based Lineweaver-Burk plot analysis

Cholinesterase, sequence (P81908 whole entry): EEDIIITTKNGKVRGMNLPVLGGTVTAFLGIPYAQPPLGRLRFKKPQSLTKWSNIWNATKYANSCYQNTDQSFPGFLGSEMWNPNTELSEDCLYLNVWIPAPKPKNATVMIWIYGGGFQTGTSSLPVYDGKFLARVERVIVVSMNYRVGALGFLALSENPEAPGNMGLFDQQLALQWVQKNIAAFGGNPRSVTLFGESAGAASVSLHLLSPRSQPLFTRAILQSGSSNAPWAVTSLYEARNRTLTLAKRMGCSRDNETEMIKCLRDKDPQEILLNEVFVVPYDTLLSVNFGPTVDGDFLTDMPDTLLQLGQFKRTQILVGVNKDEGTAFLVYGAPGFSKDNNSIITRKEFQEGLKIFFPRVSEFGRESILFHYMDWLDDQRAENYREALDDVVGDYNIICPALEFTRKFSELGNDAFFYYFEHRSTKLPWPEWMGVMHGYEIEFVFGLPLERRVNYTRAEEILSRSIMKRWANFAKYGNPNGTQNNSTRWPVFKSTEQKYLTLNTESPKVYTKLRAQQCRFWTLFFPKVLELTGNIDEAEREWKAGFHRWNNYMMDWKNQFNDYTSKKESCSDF
Acetylcholinesterase, sequence (O42275 whole entry): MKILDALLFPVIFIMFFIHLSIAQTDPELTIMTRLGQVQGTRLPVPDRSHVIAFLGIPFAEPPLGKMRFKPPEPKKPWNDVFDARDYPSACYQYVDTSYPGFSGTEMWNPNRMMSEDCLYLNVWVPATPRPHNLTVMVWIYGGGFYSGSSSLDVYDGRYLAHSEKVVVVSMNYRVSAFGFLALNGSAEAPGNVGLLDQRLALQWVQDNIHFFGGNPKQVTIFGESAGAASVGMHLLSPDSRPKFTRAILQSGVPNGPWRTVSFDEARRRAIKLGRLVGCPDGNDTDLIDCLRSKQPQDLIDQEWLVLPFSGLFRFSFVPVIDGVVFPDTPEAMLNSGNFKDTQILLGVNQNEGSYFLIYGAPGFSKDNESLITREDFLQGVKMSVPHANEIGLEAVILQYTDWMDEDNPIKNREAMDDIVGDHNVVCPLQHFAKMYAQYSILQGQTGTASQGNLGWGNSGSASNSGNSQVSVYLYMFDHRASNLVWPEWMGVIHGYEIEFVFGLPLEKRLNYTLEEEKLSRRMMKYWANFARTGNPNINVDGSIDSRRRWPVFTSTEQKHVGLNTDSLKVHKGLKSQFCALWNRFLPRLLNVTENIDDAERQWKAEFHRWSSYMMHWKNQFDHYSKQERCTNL
Acetylcholinesterase (Electrophorus electricus), sequence (O42275 24-633 limits assumed): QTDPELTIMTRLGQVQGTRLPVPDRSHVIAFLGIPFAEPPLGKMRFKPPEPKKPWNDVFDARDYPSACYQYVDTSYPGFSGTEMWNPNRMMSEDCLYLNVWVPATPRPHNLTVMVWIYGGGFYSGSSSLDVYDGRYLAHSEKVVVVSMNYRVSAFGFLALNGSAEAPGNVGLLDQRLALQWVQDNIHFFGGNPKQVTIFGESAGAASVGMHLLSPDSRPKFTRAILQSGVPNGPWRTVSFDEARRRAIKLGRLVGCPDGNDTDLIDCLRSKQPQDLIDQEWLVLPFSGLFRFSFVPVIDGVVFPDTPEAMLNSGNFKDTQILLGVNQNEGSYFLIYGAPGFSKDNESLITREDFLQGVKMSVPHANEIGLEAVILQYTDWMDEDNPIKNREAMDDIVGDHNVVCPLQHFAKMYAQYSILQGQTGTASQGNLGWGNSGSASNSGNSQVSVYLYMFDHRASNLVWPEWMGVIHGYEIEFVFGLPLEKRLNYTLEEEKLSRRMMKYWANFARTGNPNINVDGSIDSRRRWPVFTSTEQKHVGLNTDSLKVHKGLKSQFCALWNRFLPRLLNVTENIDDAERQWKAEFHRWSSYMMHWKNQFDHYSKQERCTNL

SMILES	IC50 (Acetylcholinesterase) [nM]	IC50 (Cholinesterase) [nM]	inhibition [1]	inhibition [2]	inhibition [3]
COc1ccc(CNCCCCCCCCNc2c3c(nc4ccccc24)CCCC3)cc1	15.3	4.82			
Oc1ccc(CNCCCCCCNc2c3c(nc4ccccc24)CCCC3)cc1	25.6	7.5			
Oc1ccc(CNCCCCCCCCNc2c3c(nc4ccccc24)CCCC3)cc1	7.48	5.31			
c1ccc2c(NCCCCCCCCNCc3ccc4c(c3)OCO4)c3c(nc2c1)CCCC3	6.14	3.44			
Oc1cccc(CNCCCCCCCCNc2c3c(nc4ccccc24)CCCC3)c1	15.1	4.91			
COc1cc(CNCCCCCCCCNc2c3c(nc4ccccc24)CCCC3)ccc1O	4.55	3.41	Active	71%	Active
COc1cc(CNCCCCCCCCNc2c3c(nc4ccccc24)CCCC3)cc(OC)c1O	4.61	4.08			
COc1cc(/C=C/C(=O)CC(=O)/C=C/c2ccc(O)c(OC)c2)ccc1O				50%	
COc1ccc(CNCCCCCNc2c3c(nc4ccccc24)CCCC3)cc1OC	104	24.4			
c1ccc2c(NCCCCCCCCNCc3ccncc3)c3c(nc2c1)CCCC3	4.7	4.66			
COc1cc(CNCCCCCCNc2c3c(nc4ccccc24)CCCC3)ccc1O	43.6	9.28			
Oc1ccccc1CNCCCCCCCCNc1c2c(nc3ccccc13)CCCC2	12.5	10.2			
COc1ccc(CNCCCCCCNc2c3c(nc4ccccc24)CCCC3)cc1OC				Active	
COc1ccc(CNCCCCNc2c3c(nc4ccccc24)CCCC3)cc1OC	365	37.2		Active	
O=C(NCCCCCCCCNc1c2c(nc3ccccc13)CCCC2)c1ccncc1	38.5	38.7			
